Source: the NIST ThermoML archive (doi:10.1016/j.tca.2004.08.013)

Experiment: xn = mol fraction of the nth substance listed
Conditions: 101.3 kPa, Liquid

CCN(CC)CC [triethylamine] + CCC(C)=O
303.15 K
Conditions	mass density [kg/m3]	viscosity [mPa·s]
x1 = 0.011	798.96	0.362
x1 = 0.0217	798.22	0.36
x1 = 0.0315	797.6	0.357
x1 = 0.0413	796.87	0.355
x1 = 0.0508	796.32	0.353
x1 = 0.0597	795.5	0.351
x1 = 0.0697	794.8	0.347
x1 = 0.0801	794.25	0.344
x1 = 0.0915	793.37	0.341
x1 = 0.1022	792.79	0.338

CCCCNCCCC [dibutylamine] + ClC(Cl)(Cl)Cl
Conditions	mass density, 303.15 K [kg/m3]	mass density, 313.15 K [kg/m3]	viscosity, 303.15 K [mPa·s]	viscosity, 313.15 K [mPa·s]
x1 = 0.0105	1560.01	1540.58	0.852	0.761
x1 = 0.0201	1546.59	1527.31	0.851	0.76
x1 = 0.0298	1533.23	1514.26	0.85	0.761
x1 = 0.0396	1519.86	1501.14	0.85	0.76
x1 = 0.049	1507.12	1488.59	0.849	0.759
x1 = 0.0583	1494.77	1476.4	0.847	0.757
x1 = 0.0696	1480	1461.9	0.846	0.755
x1 = 0.0789	1467.95	1450.12	0.845	0.754
x1 = 0.089	1455.15	1437.55	0.845	0.752

CCCCN [1-butanamine] + ClC(Cl)(Cl)Cl
Conditions	mass density, 303.15 K [kg/m3]	mass density, 313.15 K [kg/m3]	viscosity, 303.15 K [mPa·s]	viscosity, 313.15 K [mPa·s]
x1 = 0.0099	1566.74	1547.13	0.855	0.763
x1 = 0.0183	1559.88	1540.41	0.858	0.765
x1 = 0.0287	1551.36	1532.01	0.861	0.768
x1 = 0.0386	1543.06	1523.9	0.862	0.77
x1 = 0.0477	1535.31	1516.18	0.862	0.773
x1 = 0.0581	1526.57	1507.58	0.864	0.776
x1 = 0.0675	1518.67	1499.84	0.866	0.78
x1 = 0.076	1511.52	1492.72	0.869	0.784
x1 = 0.0856	1503.49	1484.69	0.871	0.786
